The record followed here is PubChem BioAssay (NCI).

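96-well plates; 48 h exposure; 5 concentrations. Endpoints by linear interpolation between flanking doses. Not reached: highest tested concentration assigned. GI50 is the concentration that inhibits growth by half. TGI marks complete inhibition of growth.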

Some test systems named below: BT-549 breast; OVCAR-8 ovarian; HT29 colon; NCI-H226 lung; SF-539 CNS; SW-620 colon; SF-268 CNS; MOLT-4 leukemia; CAKI-1 renal; DU-145 prostate.
What all share (assay): NCI-60 cell line screen, 48 h

As for `COc1ccc2[nH]c(C(=O)OCc3ccc4c(Br)cc(Br)c(O)c4n3)cc2c1`, the GI50 in the assay with BT-549 breast is 0.881 µM; with OVCAR-8 ovarian, 0.907 µM; with HT29 colon it was 0.39 µM; in the assay on NCI-H226 lung, 1.3 µM; with SF-539 CNS it was 0.768 µM; in the assay with SW-620 colon it was 0.364 µM. The GI50 with SF-268 CNS was 1.48 µM; in the assay with MOLT-4 leukemia it was 0.452 µM; in the assay with CAKI-1 renal, 0.482 µM; in the assay on DU-145 prostate, 1.12 µM. Moreover, the TGI with BT-549 breast was found to be 2.16 µM; in the assay with OVCAR-8 ovarian, 2.64 µM; in the assay on HT29 colon, 1.49 µM; in the assay on NCI-H226 lung, 2.81 µM; with SF-539 CNS it was 2.05 µM; in the assay with SW-620 colon it was 1.41 µM. Moreover, the TGI in the assay on SF-268 CNS came to 2.92 µM; with MOLT-4 leukemia, 2.17 µM; in the assay on CAKI-1 renal it was 1.83 µM; in the assay with DU-145 prostate, 2.33 µM.
With `O=C(CCN1CCCCC1)c1csc2ccccc12`, the TGI in the assay with BT-549 breast, in the assay with OVCAR-8 ovarian, in the assay on HT29 colon, with NCI-H226 lung, in the assay on SF-539 CNS and with SW-620 colon was over 100 µM each time. Further, the TGI with SF-268 CNS, with MOLT-4 leukemia, with CAKI-1 renal and in the assay with DU-145 prostate was over 100 µM throughout.
In the case of `COc1ccc(OC)c(C2=C(c3cn(C)c4ccccc34)C(=O)NC2=O)c1`, the GI50 with BT-549 breast was over 25 µM; in the assay on OVCAR-8 ovarian, over 25 µM; with HT29 colon, over 21.5 µM; in the assay on NCI-H226 lung, over 25 µM; in the assay with SF-539 CNS, over 25 µM; with SW-620 colon, 20.8 µM. The GI50 was over 25 µM in the assay on SF-268 CNS, 24.6 µM with MOLT-4 leukemia, over 25 µM in the assay with CAKI-1 renal and over 25 µM in the assay on DU-145 prostate. The TGI in the assay with BT-549 breast, with OVCAR-8 ovarian, in the assay with HT29 colon, in the assay with NCI-H226 lung, in the assay with SF-539 CNS and with SW-620 colon was over 25 µM throughout. In addition, the TGI with SF-268 CNS, in the assay with MOLT-4 leukemia, with CAKI-1 renal and in the assay on DU-145 prostate was over 25 µM throughout.
As to `Nc1c(C(=O)Nc2cccc(Cl)c2)sc2nc3c(cc12)C(O)CCC3` (stereo not given), the GI50 is 3.14 µM in the assay on BT-549 breast; 0.714 µM in the assay on OVCAR-8 ovarian; 0.315 µM in the assay with HT29 colon; 2.68 µM with NCI-H226 lung; 0.275 µM with SF-539 CNS; 0.48 µM in the assay on SW-620 colon. Besides, the GI50 in the assay with SF-268 CNS is 0.754 µM; in the assay on MOLT-4 leukemia, 0.488 µM; in the assay with CAKI-1 renal, 0.432 µM; in the assay on DU-145 prostate it was 0.388 µM. The TGI with BT-549 breast was 38.5 µM; with OVCAR-8 ovarian it was 22.9 µM; with HT29 colon, 12.2 µM; in the assay with NCI-H226 lung, 38.1 µM; in the assay with SF-539 CNS it was 0.965 µM; with SW-620 colon it was over 89.3 µM. Besides, the TGI in the assay on SF-268 CNS was 39.1 µM; in the assay on MOLT-4 leukemia, over 57.7 µM; with CAKI-1 renal, 30.4 µM; in the assay on DU-145 prostate, 16.3 µM.
Regarding `Nc1nc(N)c2cc(S(=O)(=O)c3ccc4ccccc4c3)ccc2n1`, the TGI is over 100 µM in the assay with BT-549 breast; 49.6 µM with OVCAR-8 ovarian; over 100 µM in the assay with HT29 colon; over 100 µM with NCI-H226 lung; over 74.7 µM in the assay with SF-539 CNS; over 100 µM with SW-620 colon. Also, the TGI was over 58.9 µM with SF-268 CNS, over 100 µM with MOLT-4 leukemia, over 100 µM with CAKI-1 renal and over 100 µM with DU-145 prostate. Besides, the GI50 with HT29 colon is 2.34 µM; in the assay on NCI-H226 lung it was 10.8 µM; with SW-620 colon it was 0.611 µM; in the assay on MOLT-4 leukemia, over 100 µM; in the assay with DU-145 prostate, 7.78 µM.
`CCN1CCN(Cc2ccc(Nc3ncc(F)c(-c4cc(F)c5nc(C)n(C(C)C)c5c4)n3)nc2)CC1`: the GI50 was 6.54 µM in the assay on BT-549 breast; 9.58 µM in the assay on OVCAR-8 ovarian; 0.268 µM with HT29 colon; 0.109 µM in the assay on NCI-H226 lung; 7.39 µM with SF-539 CNS; 0.192 µM in the assay with SW-620 colon. In addition, the GI50 was 5.32 µM with SF-268 CNS, 0.156 µM in the assay with MOLT-4 leukemia, 0.187 µM in the assay on CAKI-1 renal and 5.75 µM with DU-145 prostate. Further, the TGI with BT-549 breast was 13.7 µM; in the assay on OVCAR-8 ovarian, 26.2 µM; in the assay with HT29 colon it was 10.8 µM; in the assay on NCI-H226 lung it was 25.2 µM; in the assay on SF-539 CNS, 15.7 µM; with SW-620 colon, 11.9 µM. Moreover, the TGI came out at 13.9 µM with SF-268 CNS, 9.85 µM with MOLT-4 leukemia, 7.51 µM in the assay on CAKI-1 renal and 12.2 µM with DU-145 prostate.
`COc1ccccc1CNCCCN1C(=O)c2ccc3c4c(ccc(c24)C1=O)C(=O)N(CCCNCCCCNCCCN)C3=O`: the GI50 in the assay with BT-549 breast is 1.7 µM; in the assay on OVCAR-8 ovarian it was 0.285 µM; in the assay on HT29 colon, 0.287 µM; in the assay on NCI-H226 lung it was 0.911 µM; in the assay on SF-539 CNS, 0.426 µM; in the assay on SW-620 colon it was 0.26 µM. The GI50 with SF-268 CNS is 0.333 µM; with MOLT-4 leukemia, 0.57 µM; in the assay on CAKI-1 renal it was 2.6 µM; in the assay with DU-145 prostate, 0.682 µM. For the same molecule, the TGI with BT-549 breast was determined as 3.57 µM; with OVCAR-8 ovarian, 2.19 µM; in the assay with HT29 colon, 0.995 µM; with NCI-H226 lung, 2.71 µM; in the assay on SF-539 CNS it was 1.67 µM; with SW-620 colon, 1.28 µM. Also, the TGI stood at 3.61 µM in the assay with SF-268 CNS, 8.31 µM with MOLT-4 leukemia, 10.4 µM in the assay with CAKI-1 renal and 2.03 µM with DU-145 prostate.
As to `Cc1nc2ccc(-n3ncc(C(=O)c4cc5ccccc5[nH]4)c3N)cc2[nH]1`, the GI50 is 5.43 µM in the assay with BT-549 breast; 7.08 µM in the assay with OVCAR-8 ovarian; 5.13 µM with HT29 colon; 10.5 µM with NCI-H226 lung; 1.17 µM in the assay on SF-539 CNS; 7.78 µM with SW-620 colon. Moreover, the GI50 is 6.63 µM with SF-268 CNS, 5.99 µM in the assay with MOLT-4 leukemia, 7.16 µM in the assay on CAKI-1 renal and 13.1 µM in the assay on DU-145 prostate. Besides, the TGI was 38.6 µM with BT-549 breast; over 100 µM in the assay on OVCAR-8 ovarian; 66.9 µM in the assay with HT29 colon; 49.9 µM in the assay with NCI-H226 lung; 10.9 µM in the assay with SF-539 CNS; over 100 µM in the assay with SW-620 colon. Besides, the TGI was over 100 µM with SF-268 CNS, 56.1 µM with MOLT-4 leukemia, over 100 µM in the assay with CAKI-1 renal and over 100 µM in the assay on DU-145 prostate.
Take `COc1cc(/C=C2\CCC/C(=C\c3cc(CN4CCCC4)c(O)c(OC)c3)C2=O)cc(CN2CCCC2)c1O`: the GI50 was 4.79 µM in the assay with BT-549 breast; 3.27 µM in the assay with OVCAR-8 ovarian; 0.322 µM in the assay with HT29 colon; 2.57 µM with NCI-H226 lung; 1.72 µM with SF-539 CNS; 3.62 µM in the assay on SW-620 colon. The GI50 is 4.53 µM with SF-268 CNS, 2.43 µM with MOLT-4 leukemia, 5.51 µM with CAKI-1 renal and 4.63 µM with DU-145 prostate. Also, the TGI was 17.8 µM with BT-549 breast; over 100 µM in the assay with OVCAR-8 ovarian; 1.78 µM with HT29 colon; 6.84 µM with NCI-H226 lung; 3.63 µM with SF-539 CNS; 12.9 µM in the assay with SW-620 colon. Besides, the TGI worked out at 16.3 µM in the assay with SF-268 CNS, 8.98 µM in the assay on MOLT-4 leukemia, 17.7 µM in the assay with CAKI-1 renal and 15.4 µM in the assay on DU-145 prostate.
In the case of `CSC1=CC(=O)c2ccccc2C1=O`, the GI50 in the assay on BT-549 breast was 11.6 µM; in the assay on OVCAR-8 ovarian it was 3.58 µM; with HT29 colon, 26.3 µM; in the assay with NCI-H226 lung, 1.68 µM; in the assay with SF-539 CNS, 11.4 µM; in the assay on SW-620 colon, 2.49 µM. For the same molecule, the GI50 was 8.85 µM with SF-268 CNS, 1.64 µM in the assay on MOLT-4 leukemia, 1.59 µM in the assay with CAKI-1 renal and 10.8 µM in the assay on DU-145 prostate. The TGI in the assay on BT-549 breast stood at 23.8 µM; in the assay with OVCAR-8 ovarian, 15 µM; in the assay on HT29 colon, 65.2 µM; in the assay with NCI-H226 lung, 3.82 µM; with SF-539 CNS, 24.3 µM; in the assay with SW-620 colon it was 8.13 µM. For the same molecule, the TGI in the assay with SF-268 CNS worked out at 22.1 µM; in the assay with MOLT-4 leukemia it was 4.86 µM; in the assay on CAKI-1 renal, 3.11 µM; with DU-145 prostate, 23.6 µM.
